Experiment [1] relates to effects of serotonin in the gastric lesion test. The experiment in a line: Antagonistic activity on the effects of serotonin in the gastric lesion test (lesions induced by compound 48/80). It counts as in vivo, rat (male, Wistar inbred strain). The source says:
The compounds of formula (I) and the pharmaceutically acceptable acid addition salts thereof are also potent serotonin-antagonists. The potency of the subject compounds as serotonin-antagonists is clearly evidenced by the results obtained in the following tests wherein the antagonistic activity of the subject compounds on the effect of serotonin is examined.
Antagonistic activity on the effects of serotonin in the gastric lesion test.
The shock, followed by dead, can be avoided if the rats are pretreated with a classical H 1 antagonist.
Male rats of a Wistar inbred strain, weighing 220-250 g, were starved overnight, water being available ad libitum. The test compounds were administered orally as a solution or as a suspension in aqueous medium. A control rat and a "blank" rat received the test compound. One hour later 5-[4-(diphenylmethyl)-1-piperazinylmethyl]-1-methyl-1H-benzimidazole-2-methanol was administered subcutaneously to all rats at the dose of 2.5 mg/kg.
Four hours after the intravenous injection of compound 48/80, the rats were decapitated and the stomachs were removed. Subsequently the stomachs were inspected for distension and contents (blood, fluid, food) and thoroughly rinsed. The macroscopic lesions were scored from 0 to +++, 0 corresponding to the complete absence of visible lesions and the highest score corresponding to reddish rough patches covering more than half the glandular area.

Experiment [2] relates to compound 48/80-induced lethality. The experiment in a line: Protection of rats from compound 48/80-induced lethality. Type of experiment: in vivo, rat (male, inbred Wistar strain). The note with it: subcutaneous or oral, 1 h before compound 48/80 0.5 mg/kg i.v., survival after 4 h; for ED50: Rattus norvegicus, 4 h, read-out: compound 48/80 lethality test in rats-ED50, dose protecting 50% of animals. How it is done: Protection of rats from compound 48/80-induced lethality.
The protection from compound 48/80-induced lethal circulatory collapse appears to be a simple way of evaluating quantitatively the antihistaminic activity of test compounds. Male rats of an inbred Wistar strain, weighing 240-260 g were used in the experiment. After overnight starvation the rats were transferred to conditioned laboratories (temp.=21±1° C., relative humidity=65±5%).
The rats were treated subcutaneously or orally with a test compound or with the solvent (NaCl solution, 0.9%). […] Survival after 4 hours is therefore considered to be a safe criterion of a protective effect of drug administration.
The ED50 -values of the compounds of formula (I) are listed in the first column of table 1. Said ED50 -values are the values in mg/kg body weight at which the tested compounds protect 50% of the tested animals against compound 48/80-induced lethality.

Experiment [3] deals with effects of serotonin in the gastric lesion test. The note with it: rats injected with compound 48/80; known serotonin-antagonists; cited from earlier work.
Where [4] appears, read: Rattus norvegicus; read-out: gastric lesion test ED50.
The mark [5] stands for this setting: Rattus norvegicus, read-out: gastric lesion test ED50.

Where a name gives a salt, the structure may show the parent alone. Read-outs that look alike come from different tables or passages of the source.

Take `Fc1ccc(Cn2c(NC3CCN(CCCCCNc4nccs4)CC3)nc3ccccc32)cc1` [Compound 21]: the ED50 was 0.31 mg/kg in experiment [1] (setting [4]) and 0.16 mg/kg in experiment [2].

As to `Clc1ccc(Cn2c(NC3CCN(CCNc4nccs4)CC3)nc3ccccc32)cc1` [Compound 25], the ED50 in experiment [1] (setting [4]) was 0.63 mg/kg; in experiment [2] it was 0.31 mg/kg.

Regarding `c1csc(Cn2c(NC3CCN(CCNc4nccs4)CC3)nc3ccccc32)c1` [Compound 28], the figures for the ED50 in experiment [1] (setting [4]) and in experiment [2] were 0.02 mg/kg and 0.08 mg/kg, respectively. Consider `Cc1ccccc1Cn1c(NC2CCN(CCNc3nccs3)CC2)nc2ccccc21` [Compound 29], for which the ED50 in experiment [1] (setting [4]) and in experiment [2] was 0.63 mg/kg each time.

In the case of `Fc1ccccc1Cn1c(NC2CCN(CCNc3nccs3)CC2)nc2ccccc21` [Compound 31], the ED50 in experiment [1] (setting [4]) came to 0.63 mg/kg; in experiment [2] it was 0.08 mg/kg. Take `c1coc(Cn2c(NC3CCN(CCNc4nccs4)CC3)nc3ccccc32)c1` [Compound 48, 1-(2-furanylmethyl)-N-[1-[2-(2-thiazolylamino)ethyl]-4-piperidinyl]-1H-benzimidazol-2-amine]: the ED50 is 0.63 mg/kg in experiment [1] (setting [4]) and 0.08 mg/kg in experiment [2].

For the molecule `c1ccc2c(c1)nc(NC1CCN(CCNc3nccs3)CC1)n2Cc1cscn1` [Compound 49, N-[1-[2-(2-thiazolylamino)ethyl]-4-piperidinyl]-1-(4-thiazolylmethyl)-1H-benzimidazol-2-amine ethanedioate (2:5)], the ED50 was determined as 0.63 mg/kg in experiment [1] (setting [4]) and 0.04 mg/kg in experiment [2].

Take `Fc1ccc(Cn2c(NC3CCN(C4CCN(c5nccs5)CC4)CC3)nc3ccccc32)cc1` [Compound 52]: the results for the ED50 in experiment [1] (setting [4]) and in experiment [2] were 0.63 mg/kg and 1.25 mg/kg, respectively. Take `Fc1ccc(Cn2c(NC3CCN(CCNc4nccs4)CC3)nc3ccccc32)cc1` [Compound 58]: the ED50 in experiment [1] (setting [5]) was found to be 0.04 mg/kg. Further, in experiment [2] (dose protecting 50% of animals, 0.5 mg/kg, 240 min), the “compound 48/80 lethality test in rats-ED50” value worked out at 0.02 mg/kg body weight. With `Cc1ccc(Cn2c(NC3CCN(CCNc4nccs4)CC3)nc3ccccc32)cc1` [Compound 62], the ED50 in experiment [1] (setting [4]) was determined as 0.63 mg/kg; in experiment [2], 0.16 mg/kg. For the molecule `Fc1ccc(Cn2c(NC3CCN(CCOc4nccs4)CC3)nc3ccccc32)cc1` [Compound 72, 1-[(4-fluorophenyl)methyl]-N-[1-[2-(2-thiazolyloxy)ethyl]-4-piperidinyl]-1H-benzimidazol-2-amine], the values for the ED50 in experiment [1] (setting [4]) and in experiment [2] were 0.63 mg/kg and 0.08 mg/kg, respectively. Turning to `Cn1ccnc1SCCN1CCC(Nc2nc3ccccc3n2Cc2ccc(F)cc2)CC1` [Compound 75, 1-[(4-fluorophenyl)methyl]-N-[1-[2-[(1-methyl-1H-imidazol-2-yl)thio]ethyl]-4-piperidinyl]-1H-benzimidazol-2-amine], the ED50 in experiment [1] (setting [5]) and in experiment [2] was 0.08 mg/kg throughout. Consider `Fc1ccc(Cn2c(NC3CCN(CCNc4ncc[nH]4)CC3)nc3ccccc32)cc1` [Compound 79, 1-[(4-fluorophenyl)methyl]-N-[1-[2-(1H-imidazol-2-ylamino)ethyl]-4-piperidinyl]-1H-benzimidazol-2-amine], for which the ED50 in experiment [1] (setting [5]) worked out at 0.04 mg/kg; in experiment [2] it was 0.02 mg/kg. For the molecule `CC(C)n1ccnc1NCCN1CCC(Nc2nc3ccccc3n2Cc2ccc(F)cc2)CC1.O` [Compound 81, 1-[(4-fluorophenyl)methyl]-N-[1-[2-[[1-(1-methylethyl)-1H-imidazol-2-yl]amino]-ethyl]-4-piperidinyl]-1H-benzimidazol-2-amine mono hydrate], the ED50 in experiment [1] (setting [4]) amounted to 0.31 mg/kg; in experiment [2], 0.04 mg/kg.

As to `Cc1coc(NCCN2CCC(Nc3nc4ccccc4n3Cc3ccc(F)cc3)CC2)n1` [Compound 84, 1-[(4-fluorophenyl)methyl]-N-[1-[2-[(4-methyl-2-oxazolyl)amino]ethyl]-4-piperidinyl]-1H-benzimidazol-2-amine], the ED50 in experiment [1] (setting [4]) is 0.63 mg/kg; in experiment [2], 0.16 mg/kg. Take `Cc1csc(NCCN2CCC(Nc3nc4ccccc4n3Cc3ccc(F)cc3)CC2)n1` [Compound 85, 1-[(4-fluorophenyl)methyl]-N-[1-[2-[(4-methyl-2-thiazolyl)amino]ethyl]-4-piperidinyl]-1H-benzimidazol-2-amine]: the ED50 in experiment [1] (setting [5]) is 0.04 mg/kg; in experiment [2], 0.08 mg/kg.

Turning to `Fc1ccc(Cn2c(NC3CCN(CCNc4nc(-c5ccncc5)cs4)CC3)nc3ccccc32)cc1` [Compound 86], the ED50 is 1.25 mg/kg in experiment [1] (setting [4]) and 0.31 mg/kg in experiment [2]. On to `Fc1ccc(Cn2c(NC3CCN(CCNc4nc(-c5ccccn5)cs4)CC3)nc3ccccc32)cc1` [Compound 87], for which the ED50 in experiment [1] (setting [4]) amounted to 0.63 mg/kg; in experiment [2], 0.31 mg/kg. On the same counts, the results for `N=C(N)Nc1nc(CCN2CCC(Nc3nc4ccccc4n3Cc3ccc(F)cc3)CC2)cs1` [Compound 90, N-[4-[2-[4-[[1-[(4-fluorophenyl)methyl]-1H-benzimidazol-2-yl]amino]-1-piperidinyl]ethyl-2-thiazolyl]guanidinetrihydrobromide] are 0.31 mg/kg and 0.04 mg/kg. Consider `Cc1sc(N)nc1CCN1CCC(Nc2nc3ccccc3n2Cc2ccc(F)cc2)CC1` [Compound 94, N-[1-[2-(2-amino-5-methyl-4-thiazolyl)ethyl]-4-piperidinyl]-1-[(4-fluorophenyl)methyl]-1H-benzimidazol-2-amine], for which the ED50 in experiment [1] (setting [5]) and in experiment [2] was 0.08 mg/kg each time. Consider `CNc1nc(CCN2CCC(Nc3nc4ccccc4n3Cc3ccc(F)cc3)CC2)cs1` [Compound 98, 1-[(4-fluorophenyl)methyl]-N-[1-[2-[2-(methylamino)-4-thiazolyl]-ethyl]-4-piperidinyl]-1H-benzimidazol-2-amine], for which the ED50 in experiment [1] (setting [4]) and in experiment [2] was 0.16 mg/kg each time.

Consider `O=C(c1ccccc1)N(CCN1CCC(Nc2nc3ccccc3n2Cc2ccc(F)cc2)CC1)c1nccs1` [Compound 100, N-[2-[4-[[1-[(4-fluorophenyl)methyl]-1H-benzimidazol-2-yl]amino]-1-piperidinyl]ethyl]-N-(2-thiazolyl)benzamide], for which the ED50 in experiment [1] (setting [4]) came out at 0.63 mg/kg; in experiment [2] it was 0.31 mg/kg. `CC(=O)N(CCN1CCC(Nc2nc3ccccc3n2Cc2ccc(F)cc2)CC1)c1nccs1` [Compound 102, N-[2-[4-[[1-[(4-fluorophenyl)methyl]-1H-benzimidazol-2-yl]-amino]-1-piperidinyl]ethyl]-N-(2-thiazolyl)acetamide]: the results for the ED50 in experiment [1] (setting [4]) and in experiment [2] were 1.25 mg/kg and 0.16 mg/kg, respectively. With `CNC(=O)N(CCN1CCC(Nc2nc3ccccc3n2Cc2ccc(F)cc2)CC1)c1nccs1` [Compound 103, N-[2-[4-[[1-[(4-fluorophenyl)methyl]-1H-benzimidazol-2-yl]amino]-1-piperidinyl]ethyl]-N'-methyl-N-(2-thiazolyl)urea], the ED50 amounted to 0.63 mg/kg in experiment [1] (setting [4]) and 0.08 mg/kg in experiment [2]. Consider `CN(C)CCCSc1ccccc1NC(=O)/C=C/c1ccccc1` [cinanserin], for which the “prevention of cyanosis of ears and extremities, lesions in the glandular area of the stomach and abnormal gastric distension” value (from here on “prevention”) in experiment [3] is on record as “prevent completely”. Take `CN1CCC(=C2c3ccccc3C=Cc3ccccc32)CC1` [cyproheptadine]: in experiment [3], the “prevention” value is given as “prevent completely”. As to `CN1C[C@H](CNC(=O)OCc2ccccc2)C[C@@H]2c3cccc4c3c(cn4C)C[C@H]21` [metergoline], in experiment [3], the “prevention” value was “prevent completely”. Regarding `CC[C@@H](CO)NC(=O)[C@@H]1C=C2c3cccc4c3c(cn4C)C[C@H]2N(C)C1` [methysergide], the “prevention” value in experiment [3] is given as “prevent completely”. In the case of `CN1CCN2c3ccccc3Cc3ccccc3C2C1` (centres unmarked) [mianserin], the “prevention” value in experiment [3] is reported as “prevent completely”. As to `NC(=O)C1(N2CCCCC2)CCN(CCCC(=O)c2ccc(F)cc2)CC1` [pipamperone], the “prevention” value in experiment [3] was “prevent completely”.

`CN1CCC(=C2c3ccccc3CCc3sccc32)CC1` [pizotifen]: in experiment [3], the “prevention” value is “prevent completely”.

For `O=C(CCCN1CCC2(CC1)C(=O)NCN2c1ccccc1)c1ccc(F)cc1` [spiperone], the “prevention” value in experiment [3] is on record as “prevent completely”.

The values above are taken from US4634704A, “Anti-allergic five membered heterocyclic ring containing N-(bicyclic heterocycyl)-4-piperidinamines” (Janssen Pharmaceutica, N.V., priority 1984, dated 1987).
